Laboratory results reported in patent publication US20250129054A1 (Terran Biosciences Inc., priority 2022, published 2025).

Tests used:
[1] = system: rat elevated zero maze model of anxiety; assay: Rat elevated zero maze model of anxiety (% time on open areas, stretched attend postures); assay type: in vivo, Sprague-Dawley rats; details: for anxiogenic effect: across the doses tested, ip
Description: The rat zero-maze model is a refined alternative to the plus-maze, the most widely used animal model of anxiety, and consists of an elevated annular platform, divided equally into four quadrants. Two opposite quadrants are enclosed by Perspex walls on both the inner and the outer edges of the platform, while the remaining two opposite quadrants are open being enclosed only by a Perspex “lip”. Animals will show a preference for the closed areas, and avoidance of the open sections is assumed to stem from a rodent's natural aversion to open, exposed spaces. The primary index of anxiety, which reflect changes in open arm preference, is the percentage of time spent on the open areas. A reduction in the amount of activity on the open areas is considered to reflect an increase in anxiety. Other, ethologically-based behaviours are also assessed as indices of anxiety. One of the most important is stretched attend postures (SAP) from closed to open quadrants. […] Shepherd, J K; et al., (1994) Behavioural and pharmacological validation of the elevated “zero-maze” as an animal model of anxiety. Psychopharmacol., 116:56-64.
Male Sprague-Dawley 200-250 g (Envigo UK) rats were used. Animals were group-housed (5 per cage; cage size: 40×40×20 cm) in a temperature-controlled environment (22±2° C.), under a 12 h light-dark cycle (lights on: 08:00 hours) for one week prior to testing. Food and water were freely available. Number of animals per group=5. Animals were moved into the experimental room 16-24 hours before testing.
The elevated 0-maze comprises a black Perspex annular platform (105 cm diameter, 10 cm width) elevated to 65 cm above ground level, divided equally into four quadrants. Two opposite quadrants are enclosed by clear red Perspex walls (27 cm high) on both the inner and outer edges of the platform, while the remaining two opposite quadrants are surrounded only by a Perspex “lip” (1 cm high) which serves as a tactile guide to animals on these open areas.
Subjects were weighed and tail marked before being injected. After a specified pre-treatment time, subjects were placed in a closed quadrant and a 5-min test period were recorded on videotape for subsequent analysis. The maze were cleaned with 5% methanol/water solution and dried thoroughly between test sessions. Behavioural measures comprise percentage time spent on the open areas (% TO) and frequency of stretched attend postures (SAP) from closed to open quadrants. Since the control groups were all treated identically with the same vehicle these were combined to increase power. The Chlordiazepoxide groups were also treated identically with the same dose so these were also combined to increase power. Animals are scored as being in the open area when all four paws were in an open quadrant and in the closed area only when all four paws have passed over the open-closed divide. All testing were carried out between 9.00 and 16.00 hours.
For each study, a 1-way ANOVA was conducted across vehicle, CDP, and drug treatment groups. Each group was compared to the vehicle group and a p-value for treatment determined by Fishers Least Significant Difference (LSD) test. This analysis was performed in GraphPad Prism (Version 9).
Intraperitoneal (IP): Racemic methylone HCl was formulated in Vehicle 1 (Saline) for injection to concentrations of 1, 3 and 6 mg/mL to provide doses of 5, 15 and 30 mg/kg when administered ip in 5 mL/kg dosing volumes.
Intraperitoneal (IP): S-methylone HCl was formulated in Vehicle 1 (Saline) for injection to concentrations of 0.5, 1, 1.5, 3 and 6 mg/mL to provide doses of 2.5, 5, 7.5, 15 and 30 mg/kg when administered ip in 5 mL/kg dosing volumes.
Intraperitoneal (IP): R-methylone HCl was formulated in Vehicle 1 (Saline) for injection to concentrations of 1, 3 and 6 mg/mL to provide doses of 5, 15 and 30 mg/kg when administered ip in 5 mL/kg dosing volumes. […]

[2] = system: post-traumatic stress disorder (PTSD); assay: Double-blind, randomized, placebo-controlled clinical trial of methylone-assisted psychotherapy in PTSD; assay type: in vivo, human; details: at Study Conclusion; for clinician-rated functional impairment score as measured by SDS / depression as measured by HAM-D: compared to placebo-treated controls; for change in CAPS-5 assessment: with psychotherapy, compared to the placebo group, PTSD participants
Protocol: A multicenter, randomized, double-blind, placebo-controlled trial is conducted to assess the efficacy and safety of methylone-assisted psychotherapy versus psychotherapy with placebo control in participants diagnosed with at least moderate post-traumatic stress disorder (PTSD).
This multicenter, randomized, double-blind, placebo-controlled trial is conducted at various sites in the United States with IRB approval from each study site. A flexible dose of methylone hydrochloride salt or placebo, followed by a supplemental half-dose unless contraindicated by patient's previous response or medical history, is also administered during the Treatment Period with psychotherapy in at least 3 blinded monthly Experimental Sessions. The Supplemental Dose extends the duration of drug effects on the participants during an Experimental Session. Methylone test groups are further subdivided into specific groups receiving only racemic methylone hydrochloride salt, S-methylone hydrochloride salt, or R-methylone hydrochloride salt. An optional Risk Evaluation and Mitigation Strategy (REMS) Protocol may be implemented for the racemic methylone, S-methylone, and placebo-groups. The Treatment Period lasts for approximately 12 weeks. During the Treatment Period, each Experimental Session is followed by three Intervening Sessions of non-drug psychotherapy. Each Experimental Session involves an overnight stay. The Primary Outcome measure, the change in Clinician Administered PTSD Scale for DSM-5 (CAPS-5), is determined by a blinded Independent Rater (IR) pool multiple times throughout the study. The study consists of separate periods for each participant. Initially, prospective participants undergo a Screening Period involving an initial eligibility assessment, a medical history intake, informed consent, and enrollment of eligible participants. Next, a Preparation Period is undertaken for enrolled participants involving medication tapering and clinical baseline assessments to confirm each participant meets enrollment criteria. As part of the Preparation Period, a detailed assessment of co-morbidities to PTSD is recorded. Participants may remain on prescribed courses of selective serotonin reuptake inhibitor (SSRI) or serotonin and norepinephrine reuptake inhibitor (SNRI) treatment. Dosages and/or frequency of administration of a prescribed SSRI or SNRI may be adjusted to fit within study parameters. Participants may be required to taper a prescribed course of medication in order to maintain eligibility within the study. The Treatment Period consists of three monthly Experimental Sessions and associated Intervening Sessions of integrative behavioral psychotherapy. The Treatment Period lasts approximately 12 weeks. Following the Treatment Period is a Follow-up Period and Study Conclusion. During the Follow-up Period and Study Conclusion, participants complete 4 weeks with no study visits, followed by a Study Conclusion visit.
This study compares the effects of three blinded Experimental Sessions of psychotherapy in combination with flexible doses of methylone or placebo administered as described below. Non-drug preparatory and intervening psychotherapy sessions are also included. Patient's weight is determined for dosage calculation. Initial dose is 100 mg unless this will result in a dosage of less than 1.5 mg/kg of patient weight. Initial dose thereby adjusted upward in 25 mg increments to deliver the lowest dose possible of at least 1.5 mg/kg of patient weight. Initial dose for Experimental Session 2 and 3 is cumulative dose calculated by adding the initial dose plus REMS protocol dose used the previous Experimental Session for each patient.
Randomization occurs prior to the initiation of Experimental Session 1. Each participant is provided the next randomized number in a sequence by a blinded study monitor. […]

[3] = 30 mg/kg ip, 30 min pretreatment, vs vehicle and chlordiazepoxide 6 mg/kg, male SD rats
[4] = dose response over 5, 15 and 30 mg/kg ip, male SD rats
[5] = specific (sufficient) doses ip, compared with chlordiazepoxide 6 mg/kg

SMILES | frequency of SAPs [1, 3] | time spent in the open arms [1, 3] | anxiogenic effect ([1]; male SD rats) | frequency of SAPs [1, 4] | time spent in the open arms [1, 4] | frequency of SAPs [1, 5] | time in the open arms [1, 5] | daytime sleepiness as measured by ESS [2] | clinician-rated functional impairment score as measured by SDS [2] | depression as measured by HAM-D [2] | change in CAPS-5 assessment [2] | frequency of SAPs ([1]; 2.5 mg/kg and 5 mg/kg ip, male SD rats) | frequency of SAPs ([1]; 7.5 mg/kg, 15 mg/kg and 30 mg/kg ip, male SD rats) | time spent in the open arms ([1]; trend over 5 mg/kg, 7.5 mg/kg and 15 mg/kg ip, male SD rats)
CN[C@H](C)C(=O)c1ccc2c(c1)OCO2 [R-methylone] | significantly decreasing SAPs to the same level as chlordiazepoxide | as effective as chlordiazepoxide | did not show any anxiogenic effect at any dose | dose dependent decrease in SAPs | dose dependent increase in time spent in the open arms | decreased the frequency of SAPs as effectively as the benzodiazepine chlordiazepoxide | increase time in the open arms | significant improvement in lessening daytime sleepiness | significant improvement | significant improvement | significant mean reduction |  |  | 
CN[C@@H](C)C(=O)c1ccc2c(c1)OCO2 [S-methylone] | even more effective than chlordiazepoxide at reducing SAPs | the time in the open arms increased | show anxiogenic effects at lower doses |  |  | decreased the frequency of SAPs as effectively as the benzodiazepine chlordiazepoxide | increase time in the open arms | significant improvement in lessening daytime sleepiness | significant improvement | significant improvement | significant mean reduction | dose dependent increase in SAPs | dose dependent decrease in SAPS | the time spent in the open arms decreased as the dose increased
